# In US20240409585A1, “MACROCYCLIC IMMUNOMODULATORS” (priority 2021, published 2024):
# Numbered stars: 1 amine (or outer) side, 2 acyl side, 3 side chain; on linkers, the order of the positions; unused ones are H or OH. Bridge positions count the residues as written; N and C are the ends. Square brackets hold non-standard residues; d marks the D form. Peptide text beside a SMILES is read from it. * marks the point of attachment. ξ: configuration not given here. X22 = NC(=O)c1cccc(-c2ccc(C[C@H](N[*:1])C(=O)[*:2])cc2)c1; Phe(4-(4-F-Ph)) = N[C@@H](Cc1ccc(-c2ccc(F)cc2)cc1)C(=O)O; Bip = N[C@@H](Cc1ccc(-c2ccccc2)cc1)C(=O)O; Phe(2-Br) = N[C@@H](Cc1ccccc1Br)C(=O)O; Phe(3-Me) = Cc1cccc(C[C@H](N)C(=O)O)c1; NMeY = CN[C@@H](Cc1ccc(O)cc1)C(=O)O; Val(3-OH) = CC(C)(O)[C@H](N)C(=O)O; 4Pal = N[C@@H](Cc1ccncc1)C(=O)O; pS = N[C@@H](COP(=O)(O)O)C(=O)O; Cha = N[C@@H](CC1CCCCC1)C(=O)O; NMeOrn = CN[C@@H](CCCN)C(=O)O; NMeAbu = CC[C@H](NC)C(=O)O; ξTle = CC(C)(C)C(N)C(=O)O; Carboxymethyl = O=C(O)C*; NMeA = CN[C@@H](C)C(=O)O; Nle = CCCC[C@H](N)C(=O)O; Dab = NCC[C@H](N)C(=O)O
# Biological target: T1, PE-labeled human PD-L1-Ig binding to Jurkat cell line over-expressing human PD-1 (Jurkat-PD-1) (Homo sapiens, UniProt Q15116)
# T1 construct: expressed in transfected cells; host or cells: Jurkat
# T1 sequence (Q15116 25-288): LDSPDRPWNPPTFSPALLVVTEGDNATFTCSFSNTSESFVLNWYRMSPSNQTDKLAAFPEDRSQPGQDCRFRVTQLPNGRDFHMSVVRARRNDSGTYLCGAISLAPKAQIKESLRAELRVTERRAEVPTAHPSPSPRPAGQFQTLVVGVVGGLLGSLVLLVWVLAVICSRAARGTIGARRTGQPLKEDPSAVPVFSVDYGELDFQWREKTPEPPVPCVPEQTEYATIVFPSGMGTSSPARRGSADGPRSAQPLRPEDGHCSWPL
# Test: Jurkat-PD-1 Cell Binding High-Content Screening Assay (CBA): Method 1
# Details: Jurkat-hPD-1 cells, PE-labeled PD-L1-Ig 20 nM final; read-out: Jurkat HPDL1 PD1 IC50 (uM) (Method 1)
row,IC50,SMILES
1,0.43 µM,CC(C)C[C@@H]1NC(=O)[C@H](Cc2c[nH]c3ccccc23)NC(=O)[C@H](CC(=O)O)NC(=O)[C@H](Cc2ccc(O)cc2)NC(=O)[C@H](Cc2ccccc2)NC(=O)CSC[C@@H](C(=O)NCC(N)=O)NC(=O)[C@H](CO)NC(=O)[C@H](C(C)C)NC(=O)[C@H](CC(C)C)NC(=O)[C@H](CC(N)=O)NC(=O)[C@@H](CO)NC(=O)[C@H](C)N(C)C(=O)[C@H](C(C)C)NC(=O)[C@H](Cc2ccc(-c3ccccc3)cc2)NC1=O [Compound 1819] ({CH2CO}-FYDWL[Bip]V[NMeA][dS]NLVSCG-NH2; thioether N-14)
2,0.48 µM,CC(C)C[C@@H]1NC(=O)[C@H](Cc2c[nH]c3ccccc23)NC(=O)[C@H](CC(=O)O)NC(=O)[C@H](Cc2ccc(O)cc2)NC(=O)[C@H](Cc2ccccc2)NC(=O)CSC[C@@H](C(=O)N[C@@H](C)C(N)=O)NC(=O)[C@H](CO)NC(=O)[C@H](C(C)C)NC(=O)[C@H](CC(C)C)NC(=O)[C@H](CC(N)=O)NC(=O)[C@@H](CCC(=O)O)NC(=O)[C@H](C)N(C)C(=O)[C@H](C(C)C)NC(=O)[C@H](Cc2ccc(-c3ccccc3)cc2)NC1=O [Compound 1820] ({CH2CO}-FYDWL[Bip]V[NMeA][dE]NLVSCA-NH2; thioether N-14)
3,0.49 µM,CC(C)C[C@@H]1NC(=O)[C@H](Cc2c[nH]c3ccccc23)NC(=O)[C@H](COP(=O)(O)O)NC(=O)[C@H](Cc2ccc(O)cc2)NC(=O)[C@H](Cc2ccccc2)NC(=O)CSC[C@@H](C(=O)N[C@@H](C)C(N)=O)NC(=O)[C@H](CO)NC(=O)[C@H](C(C)C)NC(=O)[C@H](CC(C)C)NC(=O)[C@H](CC(N)=O)NC(=O)[C@@H](C)NC(=O)[C@H](C)N(C)C(=O)[C@H](C(C)C)NC(=O)[C@H](Cc2ccc(-c3ccccc3)cc2)NC1=O [Compound 1821] ({CH2CO}-FY[pS]WL[Bip]V[NMeA][dA]NLVSCA-NH2; thioether N-14)
4,0.58 µM,CC(C)C[C@@H]1NC(=O)[C@H](Cc2c[nH]c3ccccc23)NC(=O)[C@H](CC(=O)O)NC(=O)[C@H](Cc2ccc(O)cc2)NC(=O)[C@H](CC(N)=O)NC(=O)CSC[C@@H](C(=O)NCC(N)=O)NC(=O)[C@H](CO)NC(=O)[C@H](C(C)C)NC(=O)[C@H](CC(C)C)NC(=O)[C@H](CC(N)=O)NC(=O)[C@H](CC(N)=O)NC(=O)[C@H](C)N(C)C(=O)[C@H](C(C)C)NC(=O)[C@H](Cc2ccc(-c3ccccc3)cc2)NC1=O [Compound 1822] ({CH2CO}-NYDWL[Bip]V[NMeA]NNLVSCG-NH2; thioether N-14)
5,0.6 µM,CC(C)C[C@@H]1NC(=O)[C@H](Cc2c[nH]c3ccccc23)NC(=O)[C@H](CC(=O)O)NC(=O)[C@H](Cc2ccccc2Br)NC(=O)[C@H](Cc2ccccc2)NC(=O)CSC[C@@H](C(=O)N[C@@H](C)C(N)=O)NC(=O)[C@H](CO)NC(=O)[C@H](C(C)C)NC(=O)[C@H](CC(C)C)NC(=O)[C@H](CC(N)=O)NC(=O)[C@@H](C)NC(=O)[C@H](C)N(C)C(=O)[C@H](C(C)C)NC(=O)[C@H](Cc2ccc(-c3ccccc3)cc2)NC1=O [Compound 1823] ({CH2CO}-F[Phe(2-Br)]DWL[Bip]V[NMeA][dA]NLVSCA-NH2; thioether N-14)
6,0.63 µM,CC(C)C[C@@H]1NC(=O)[C@H](Cc2c[nH]c3ccccc23)NC(=O)[C@H](CC(=O)O)NC(=O)[C@H](Cc2ccc(O)cc2)NC(=O)[C@H](Cc2ccccc2)NC(=O)CSC[C@@H](C(=O)NCC(N)=O)NC(=O)[C@H](CO)NC(=O)[C@H](C(C)C)NC(=O)[C@H](CC(C)C)NC(=O)[C@H](CC(=O)O)NC(=O)[C@H](CC(C)C)NC(=O)[C@H](C)N(C)C(=O)[C@H](C(C)C)NC(=O)[C@H](Cc2ccc(-c3ccccc3)cc2)NC1=O [Compound 1824] ({CH2CO}-FYDWL[Bip]V[NMeA]LDLVSCG-NH2; thioether N-14)
7,0.66 µM,CC(C)C[C@@H]1NC(=O)[C@H](Cc2c[nH]c3ccccc23)NC(=O)[C@H](CC(=O)O)NC(=O)[C@H](Cc2ccc(O)cc2)NC(=O)[C@H](Cc2ccccc2)NC(=O)CSC[C@@H](C(=O)N[C@@H](C)C(N)=O)NC(=O)[C@H](CO)NC(=O)[C@H](C(C)C)NC(=O)[C@H](CC(C)C)NC(=O)[C@H](CC(=O)O)NC(=O)[C@@H](C)NC(=O)[C@H](C)N(C)C(=O)[C@H](C(C)C)NC(=O)[C@H](Cc2ccc(-c3ccc(F)cc3)cc2)NC1=O [Compound 1825] ({CH2CO}-FYDWL[Phe(4-(4-F-Ph))]V[NMeA][dA]DLVSCA-NH2; thioether N-14)
8,0.76 µM,CC(C)C[C@@H]1NC(=O)[C@H](Cc2c[nH]c3ccccc23)NC(=O)[C@H](CC(=O)O)NC(=O)[C@H](Cc2ccc(O)cc2)NC(=O)[C@H](Cc2ccccc2)NC(=O)CSC[C@@H](C(=O)NCC(N)=O)NC(=O)[C@H](CO)NC(=O)[C@H](C(C)C)NC(=O)[C@H](CC(C)C)NC(=O)[C@H](CC(=O)O)NC(=O)[C@H](CCCCN)NC(=O)[C@H](C)N(C)C(=O)[C@H](C(C)C)NC(=O)[C@H](Cc2ccc(-c3ccccc3)cc2)NC1=O [Compound 1826] ({CH2CO}-FYDWL[Bip]V[NMeA]KDLVSCG-NH2; thioether N-14)
9,0.79 µM,CC(C)C[C@@H]1NC(=O)[C@H](Cc2c[nH]c3ccccc23)NC(=O)[C@H](CC(=O)O)NC(=O)[C@H](Cc2ccc(O)cc2)NC(=O)[C@H](Cc2ccccc2)NC(=O)CSC[C@@H](C(=O)N[C@@H](C)C(N)=O)NC(=O)[C@H](CO)NC(=O)[C@H](C(C)C)NC(=O)[C@H](CC(C)C)NC(=O)[C@H](CC(=O)O)NC(=O)C(C(C)(C)C)NC(=O)[C@H](C)N(C)C(=O)[C@H](C(C)C)NC(=O)[C@H](Cc2ccc(-c3ccccc3)cc2)NC1=O (stereo partly drawn) [Compound 1827] ({CH2CO}-FYDWL[Bip]V[NMeA][ξTle]DLVSCA-NH2; thioether N-14)
10,0.82 µM,CCCC[C@@H]1NC(=O)CSC[C@@H](C(=O)NCC(N)=O)NC(=O)[C@H](CO)NC(=O)[C@H](C(C)C)NC(=O)[C@H](CC(C)C)NC(=O)[C@H](CC(=O)O)NC(=O)[C@H](CC(N)=O)NC(=O)[C@H](C)N(C)C(=O)[C@H](C(C)C)NC(=O)[C@H](Cc2ccc(-c3ccccc3)cc2)NC(=O)[C@H](CC(C)C)NC(=O)[C@H](Cc2c[nH]c3ccccc23)NC(=O)[C@H](CC(=O)O)NC(=O)[C@H](Cc2ccc(O)cc2)NC1=O [Compound 1828] ({CH2CO}-[Nle]YDWL[Bip]V[NMeA]NDLVSCG-NH2; thioether N-14)
11,0.85 µM,CC(C)C[C@@H]1NC(=O)[C@H](Cc2c[nH]c3ccccc23)NC(=O)[C@H](CC(=O)O)NC(=O)[C@H](Cc2ccc(O)cc2)NC(=O)[C@H](Cc2ccccc2)NC(=O)CSC[C@@H](C(=O)NCC(N)=O)NC(=O)[C@H](CO)NC(=O)[C@H](C(C)C)NC(=O)[C@H](CC(C)C)NC(=O)[C@H](CC(=O)O)NC(=O)[C@@H](CC(=O)O)NC(=O)[C@H](C)N(C)C(=O)[C@H](C(C)C)NC(=O)[C@H](Cc2ccc(-c3ccccc3)cc2)NC1=O [Compound 1829] ({CH2CO}-FYDWL[Bip]V[NMeA][dD]DLVSCG-NH2; thioether N-14)
12,0.9 µM,CC(C)C[C@@H]1NC(=O)[C@H](Cc2c[nH]c3ccccc23)NC(=O)[C@H](CC(=O)O)NC(=O)[C@H](Cc2ccc(O)cc2)NC(=O)[C@H](Cc2ccccc2)NC(=O)CSC[C@@H](C(=O)N[C@@H](C)C(N)=O)NC(=O)[C@H](CO)NC(=O)[C@H](C(C)C)NC(=O)[C@H](CC(C)C)NC(=O)[C@H](CC(=O)O)NC(=O)[C@@H](C)NC(=O)[C@H](C)N(C)C(=O)[C@H](C(C)C)NC(=O)[C@H](Cc2ccc(-c3cccc(C(N)=O)c3)cc2)NC1=O [Compound 1830] ({CH2CO}-FYDWL[X22]V[NMeA][dA]DLVSCA-NH2; thioether N-14)
13,0.11 µM,Cc1cccc(C[C@@H]2NC(=O)[C@H](CC(=O)O)NC(=O)[C@H](Cc3ccc(OCC(=O)O)cc3)NC(=O)[C@H](Cc3ccncc3)NC(=O)CSC[C@@H](C(=O)N[C@@H](CCN)C(N)=O)NC(=O)[C@H](CO)NC(=O)[C@H](C(C)(C)O)NC(=O)[C@H](CC3CCCCC3)NC(=O)[C@H](CCN)NC(=O)[C@@H](CC(C)C)NC(=O)[C@H](Cc3ccc(O)cc3)N(C)C(=O)[C@H](Cc3ccc(OCC(=O)O)cc3)NC(=O)[C@H](Cc3ccc(-c4ccccc4)cc3)NC(=O)[C@H](Cc3ccc(OCC(=O)O)cc3)NC2=O)c1 [Compound 1835] ({CH2CO}-[4Pal]Y(Carboxymethyl)D[Phe(3-Me)]Y(Carboxymethyl)[Bip]Y(Carboxymethyl)[NMeY][dL][Dab][Cha][Val(3-OH)]SC[Dab]-NH2; thioether N-14)
14,0.67 µM,Cc1cccc(C[C@@H]2NC(=O)[C@H](CC(=O)O)NC(=O)[C@H](Cc3ccc(OCC(=O)O)cc3)NC(=O)[C@H](Cc3ccncc3)NC(=O)CSC[C@@H](C(=O)N[C@@H](CCN)C(N)=O)NC(=O)[C@H](CO)NC(=O)[C@H](C(C)(C)O)NC(=O)[C@H](CC3CCCCC3)NC(=O)[C@H](CCN)NC(=O)[C@@H](CC(C)C)NC(=O)[C@H](CCCN)N(C)C(=O)[C@H](Cc3ccc(OCC(=O)O)cc3)NC(=O)[C@H](Cc3ccc(-c4ccccc4)cc3)NC(=O)[C@H](Cc3ccc(OCC(=O)O)cc3)NC2=O)c1 [Compound 1836] ({CH2CO}-[4Pal]Y(Carboxymethyl)D[Phe(3-Me)]Y(Carboxymethyl)[Bip]Y(Carboxymethyl)[NMeOrn][dL][Dab][Cha][Val(3-OH)]SC[Dab]-NH2; thioether N-14)
15,0.47 µM,CC[C@H]1C(=O)N[C@H](CC(C)C)C(=O)N[C@@H](CCN)C(=O)N[C@@H](CC2CCCCC2)C(=O)N[C@@H](C(C)(C)O)C(=O)N[C@@H](CO)C(=O)N[C@H](C(=O)N[C@@H](CCN)C(N)=O)CSCC(=O)N[C@@H](Cc2ccncc2)C(=O)N[C@@H](Cc2ccc(OCC(=O)O)cc2)C(=O)N[C@@H](CC(=O)O)C(=O)N[C@@H](Cc2cccc(C)c2)C(=O)N[C@@H](Cc2ccc(OCC(=O)O)cc2)C(=O)N[C@@H](Cc2ccc(-c3ccccc3)cc2)C(=O)N[C@@H](Cc2ccc(OCC(=O)O)cc2)C(=O)N1C [Compound 1837] ({CH2CO}-[4Pal]Y(Carboxymethyl)D[Phe(3-Me)]Y(Carboxymethyl)[Bip]Y(Carboxymethyl)[NMeAbu][dL][Dab][Cha][Val(3-OH)]SC[Dab]-NH2; thioether N-14)
